Test results: patent US20230085307A1, “PYRIDAZINONE COMPOUND AND HERBICIDE” (NISSAN CHEMICAL CORPORATION, priority 2019, published 2023)

How the values were obtained:
southern crabgrass [1] = experiment: Test Example 5: herbicidal effect by foliage application, plastic box (Table 20, symbol F); format: in vivo, southern crabgrass (Digitaria ciliaris); conditions: foliage application, AAH 320 g/ha, three weeks after application
In short: (§1)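 Foliar spray test: emulsion formulation diluted in water to a set application rate, sprayed onto 14-day-old plants raised in diluvial soil at 25° C to 30° C under glass. Both herbicidal effect and crop effect rated visually three weeks later.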

velvetleaf [2] = experiment: Test Example 4: herbicidal effect by soil treatment (Table 19, symbol M); format: in vivo, velvetleaf (Abutilon theophrasti); conditions: AAH 320 g/ha
In short: (§2)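 Herbicidal effect was rated 3 weeks after treatment, using the scoring criteria of an earlier test. The compound, formulated as an emulsion and diluted in water to a set herbicide amount, had been sprayed uniformly on soil over freshly sown seeds. Growth took place in a greenhouse at 25° C. to 30° C.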

velvetleaf [3] = experiment: Test Example 5: herbicidal effect by foliage application, plastic box (Table 20, symbol M); format: in vivo, velvetleaf (Abutilon theophrasti); conditions: foliage application, AAH 320 g/ha, three weeks after application
In short: as §1

persian speedwell [4] = experiment: Test Example 4: herbicidal effect by soil treatment (Table 19, symbol R); format: in vivo, Persian speedwell (Veronica persica); conditions: AAH 320 g/ha
In short: as §2

green foxtail [5] = experiment: Test Example 4: herbicidal effect by soil treatment (Table 19, symbol G); format: in vivo, green foxtail (Setaria viridis); conditions: AAH 320 g/ha
In short: as §2

barnyard grass [6] = experiment: Test Example 3: herbicidal effect by foliage application, Wagner pot (Table 18, symbol H); format: in vivo, barnyard grass (Echinochloa crus-galli); conditions: 320 g/ha
In short: (§3)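 Plants were sown in alluvial soil held under 0.1–0.5 cm standing water and grown 14 days in a greenhouse at 25–30 °C. An emulsifiable formulation, water-diluted to the set dose, was then sprayed onto the foliage, and effects were scored three weeks later using previously defined criteria.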

blackgrass [7] = experiment: Test Example 5: herbicidal effect by foliage application, plastic box (Table 20, symbol J); format: in vivo, blackgrass (Alopecurus myosuroides); conditions: foliage application, AAH 320 g/ha, three weeks after application
In short: as §1

wild oat [8] = experiment: Test Example 4: herbicidal effect by soil treatment (Table 19, symbol I); format: in vivo, wild oat (Avena fatua); conditions: AAH 320 g/ha
In short: as §2

barnyard grass [9] = experiment: Test Example 5: herbicidal effect by foliage application, plastic box (Table 20, symbol H); format: in vivo, barnyard grass (Echinochloa crus-galli); conditions: foliage application, AAH 320 g/ha, three weeks after application
In short: as §1

lambsquarters [10] = experiment: Test Example 5: herbicidal effect by foliage application, plastic box (Table 20, symbol O); format: in vivo, lambsquarters (Chenopodium album); conditions: foliage application, AAH 320 g/ha, three weeks after application
In short: as §1

windgrass [11] = experiment: Test Example 5: herbicidal effect by foliage application, plastic box (Table 20, symbol L); format: in vivo, windgrass (Apera spica-venti); conditions: foliage application, AAH 320 g/ha, three weeks after application
In short: as §1

green foxtail [12] = experiment: Test Example 5: herbicidal effect by foliage application, plastic box (Table 20, symbol G); format: in vivo, green foxtail (Setaria viridis); conditions: foliage application, AAH 320 g/ha, three weeks after application
In short: as §1

wild oat [13] = experiment: Test Example 5: herbicidal effect by foliage application, plastic box (Table 20, symbol I); format: in vivo, wild oat (Avena fatua); conditions: foliage application, AAH 320 g/ha, three weeks after application
In short: as §1

Chinese sprangletop = experiment: Test Example 3: herbicidal effect by foliage application, Wagner pot (Table 18, symbol D); format: in vivo, chinese sprangletop (Leptochloa chinensis); conditions: 320 g/ha
In short: as §3

redroot pigweed [14] = experiment: Test Example 5: herbicidal effect by foliage application, plastic box (Table 20, symbol N); format: in vivo, redroot pigweed (Amaranthus retroflexus); conditions: foliage application, AAH 320 g/ha, three weeks after application
In short: as §1

Italian ryegrass [15] = experiment: Test Example 5: herbicidal effect by foliage application, plastic box (Table 20, symbol K); format: in vivo, Italian ryegrass (Lolium multiflorum); conditions: foliage application, AAH 320 g/ha, three weeks after application
In short: as §1

southern crabgrass [16] = experiment: Test Example 4: herbicidal effect by soil treatment (Table 19, symbol F); format: in vivo, southern crabgrass (Digitaria ciliaris); conditions: AAH 320 g/ha
In short: as §2

chickweed [17] = experiment: Test Example 5: herbicidal effect by foliage application, plastic box (Table 20, symbol P); format: in vivo, common chickweed (Stellaria media); conditions: foliage application, AAH 320 g/ha, three weeks after application
In short: as §1

lambsquarters [18] = experiment: Test Example 4: herbicidal effect by soil treatment (Table 19, symbol O); format: in vivo, lambsquarters (Chenopodium album); conditions: AAH 320 g/ha
In short: as §2

redroot pigweed [19] = experiment: Test Example 4: herbicidal effect by soil treatment (Table 19, symbol N); format: in vivo, redroot pigweed (Amaranthus retroflexus); conditions: AAH 320 g/ha
In short: as §2

barnyard grass [20] = experiment: Test Example 4: herbicidal effect by soil treatment (Table 19, symbol H); format: in vivo, barnyard grass (Echinochloa crus-galli); conditions: AAH 320 g/ha
In short: as §2

Italian ryegrass [21] = experiment: Test Example 4: herbicidal effect by soil treatment (Table 19, symbol K); format: in vivo, Italian ryegrass (Lolium multiflorum); conditions: AAH 320 g/ha
In short: as §2

windgrass [22] = experiment: Test Example 4: herbicidal effect by soil treatment (Table 19, symbol L); format: in vivo, windgrass (Apera spica-venti); conditions: AAH 320 g/ha
In short: as §2

persian speedwell [23] = experiment: Test Example 5: herbicidal effect by foliage application, plastic box (Table 20, symbol R); format: in vivo, Persian speedwell (Veronica persica); conditions: foliage application, AAH 320 g/ha, three weeks after application
In short: as §1

rice flat sedge = experiment: Test Example 3: herbicidal effect by foliage application, Wagner pot (Table 18, symbol E); format: in vivo, rice flat sedge (Cyperus iria); conditions: 320 g/ha
In short: as §3

blackgrass [24] = experiment: Test Example 4: herbicidal effect by soil treatment (Table 19, symbol J); format: in vivo, blackgrass (Alopecurus myosuroides); conditions: AAH 320 g/ha
In short: as §2

chickweed [25] = experiment: Test Example 4: herbicidal effect by soil treatment (Table 19, symbol P); format: in vivo, common chickweed (Stellaria media); conditions: AAH 320 g/ha
In short: as §2

Structure (SMILES)	F: southern crabgrass, herbicidal effect (southern crabgrass [1])	M: velvetleaf, herbicidal effect rating (velvetleaf [2])	M: velvetleaf, herbicidal effect (velvetleaf [3])	R: persian speedwell, herbicidal effect rating (persian speedwell [4])	G: green foxtail, herbicidal effect rating (green foxtail [5])	herbicidal effect on H (barnyard grass), rating 0-5 (barnyard grass [6])	J: blackgrass, herbicidal effect (blackgrass [7])	I: wild oat, herbicidal effect rating (wild oat [8])	H: barnyard grass, herbicidal effect (barnyard grass [9])	O: lambsquarters, herbicidal effect (lambsquarters [10])	L: windgrass, herbicidal effect (windgrass [11])	G: green foxtail, herbicidal effect (green foxtail [12])	I: wild oat, herbicidal effect (wild oat [13])	herbicidal effect on D (Chinese sprangletop), rating 0-5 (Chinese sprangletop)	N: redroot pigweed, herbicidal effect (redroot pigweed [14])	K: Italian ryegrass, herbicidal effect (Italian ryegrass [15])	F: southern crabgrass, herbicidal effect rating (southern crabgrass [16])	P: chickweed, herbicidal effect (chickweed [17])	O: lambsquarters, herbicidal effect rating (lambsquarters [18])	N: redroot pigweed, herbicidal effect rating (redroot pigweed [19])	other results
COc1cc(F)ccc1-c1sc2ccccc2c1-c1c(O)c(OC)nn(C)c1=O [1-176]	4 (Herbicidal rate of 70% or more and less than 90%)	1 (Herbicidal rate of 5% or more and less than 20%)	5 (Herbicidal rate of 90% or more (almost completely withered))	5 (Herbicidal rate of 90% or more (almost completely withered))	5 (Herbicidal rate of 90% or more (almost completely withered))	4 (Herbicidal rate of 70% or more and less than 90%)	4 (Herbicidal rate of 70% or more and less than 90%)	3 (Herbicidal rate of 40% or more and less than 70%)	5 (Herbicidal rate of 90% or more (almost completely withered))	5 (Herbicidal rate of 90% or more (almost completely withered))	5 (Herbicidal rate of 90% or more (almost completely withered))	5 (Herbicidal rate of 90% or more (almost completely withered))	4 (Herbicidal rate of 70% or more and less than 90%)	3 (Herbicidal rate of 40% or more and less than 70%)	5 (Herbicidal rate of 90% or more (almost completely withered))	3 (Herbicidal rate of 40% or more and less than 70%)	4 (Herbicidal rate of 70% or more and less than 90%)	5 (Herbicidal rate of 90% or more (almost completely withered))	4 (Herbicidal rate of 70% or more and less than 90%)	5 (Herbicidal rate of 90% or more (almost completely withered))	H: barnyard grass, herbicidal effect rating (barnyard grass [20]): 5 (Herbicidal rate of 90% or more (almost completely withered)); K: Italian ryegrass, herbicidal effect rating (Italian ryegrass [21]): 1 (Herbicidal rate of 5% or more and less than 20%); L: windgrass, herbicidal effect rating (windgrass [22]): 5 (Herbicidal rate of 90% or more (almost completely withered)); R: persian speedwell, herbicidal effect (persian speedwell [23]): 5 (Herbicidal rate of 90% or more (almost completely withered)); herbicidal effect on E (rice flat sedge), rating 0-5 (rice flat sedge): 5 (Herbicidal rate of 90% or more (almost completely withered)); J: blackgrass, herbicidal effect rating (blackgrass [24]): 5 (Herbicidal rate of 90% or more (almost completely withered)); P: chickweed, herbicidal effect rating (chickweed [25]): 5 (Herbicidal rate of 90% or more (almost completely withered))
CCCC(=O)Oc1c(OC)nn(C)c(=O)c1-c1c(-c2ccc(F)cc2OC)sc2ccccc12 [1-177]	3 (Herbicidal rate of 40% or more and less than 70%)	0 (Herbicidal rate of 5% or less (almost no effect))	4 (Herbicidal rate of 70% or more and less than 90%)	4 (Herbicidal rate of 70% or more and less than 90%)	5 (Herbicidal rate of 90% or more (almost completely withered))	4 (Herbicidal rate of 70% or more and less than 90%)	4 (Herbicidal rate of 70% or more and less than 90%)	3 (Herbicidal rate of 40% or more and less than 70%)	4 (Herbicidal rate of 70% or more and less than 90%)	4 (Herbicidal rate of 70% or more and less than 90%)	4 (Herbicidal rate of 70% or more and less than 90%)	5 (Herbicidal rate of 90% or more (almost completely withered))	3 (Herbicidal rate of 40% or more and less than 70%)	0 (Herbicidal rate of 5% or less (almost no effect))	5 (Herbicidal rate of 90% or more (almost completely withered))	1 (Herbicidal rate of 5% or more and less than 20%)	3 (Herbicidal rate of 40% or more and less than 70%)	5 (Herbicidal rate of 90% or more (almost completely withered))	2 (Herbicidal rate of 20% or more and less than 40%)	5 (Herbicidal rate of 90% or more (almost completely withered))	H: barnyard grass, herbicidal effect rating (barnyard grass [20]): 3 (Herbicidal rate of 40% or more and less than 70%); K: Italian ryegrass, herbicidal effect rating (Italian ryegrass [21]): 0 (Herbicidal rate of 5% or less (almost no effect)); L: windgrass, herbicidal effect rating (windgrass [22]): 0 (Herbicidal rate of 5% or less (almost no effect)); R: persian speedwell, herbicidal effect (persian speedwell [23]): 4 (Herbicidal rate of 70% or more and less than 90%); herbicidal effect on E (rice flat sedge), rating 0-5 (rice flat sedge): 4 (Herbicidal rate of 70% or more and less than 90%); J: blackgrass, herbicidal effect rating (blackgrass [24]): 0 (Herbicidal rate of 5% or less (almost no effect)); P: chickweed, herbicidal effect rating (chickweed [25]): 5 (Herbicidal rate of 90% or more (almost completely withered))
